The values below come from patent publication US20230093861A1, “RAPAMYCIN ANALOGS AS MTOR INHIBITORS” (Revolution Medicines, Inc., priority 2017, published 2023).

One assay concerns P-Akt (S473). Nature of the assay: Cell based AlphaLISA assay, inhibition of P-Akt (S473) (mTORC2 substrate phosphorylation) in MDA-MB-468 cells. The following applies: Homo sapiens, AlphaLISA, two to four hours at 37° C., read-out: pIC50 for Inhibition of mTORC1 and mTORC2 Substrate Phosphorylation, p-AKT 1/2/3 -(S473) (converted). The method, boiled down: (§1)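 AlphaLISA SureFire Ultra detection of phosphorylated substrate in lysed cells; duplicate Alpha reads; control-normalized IC50 fitting.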

Another assay relates to P-P70S6K (T389). Briefly: Cell based AlphaLISA assay, inhibition of P-P70S6K (T389) (mTORC1 substrate phosphorylation) in MDA-MB-468 cells. The note with it: Homo sapiens, 4 h, AlphaLISA, two to four hours at 37° C., read-out: pIC50 for Inhibition of mTORC1 and mTORC2 Substrate Phosphorylation, P-P70S6K-(T389) (converted). The method, boiled down:
as §1

A further assay relates to P-4E-BP1 (T37/46). Nature of the assay: Cell based AlphaLISA assay, inhibition of P-4E-BP1 (T37/46) (mTORC1 substrate phosphorylation) in MDA-MB-468 cells. The note with it: Homo sapiens, AlphaLISA, two to four hours at 37° C., read-out: pIC50 for Inhibition of mTORC1 and mTORC2 Substrate Phosphorylation, P-4E-BP1-(T37/46) (converted). In short, it runs like this: as §1

Where two headings read alike, the source gives them in different places.

Take `CO[C@H]1C[C@@H]2CC[C@@H](C)[C@@](O)(O2)C(=O)C(=O)N2CCCC[C@H]2C(=O)O[C@H]([C@H](C)C[C@@H]2CC[C@@H](OCc3cccc(-c4cnc(N5CCN(Cc6cn(CCOCCOCCOCCOCCOCCC(=O)NCCCCn7nc(-c8ccc9oc(N)nc9c8)c8c(N)ncnc87)nn6)C(CO)C5)nc4)c3)[C@H](OC)C2)CC(=O)[C@H](C)/C=C(\C)[C@@H](O)[C@@H](OC)C(=O)[C@H](C)C[C@H](C)/C=C/C=C/C=C/1C` (stereo partly drawn) [Example 23]: the IC50 with P-Akt (S473) (MDA-MB-468, 4 h) was less than 3.16 nM; in the assay on P-P70S6K (T389), less than 1 nM; in the assay on P-4E-BP1 (T37/46) (MDA-MB-468, 4 h), less than 3.16 nM.
Turning to `CO[C@H]1C[C@@H]2CC[C@@H](C)[C@@](O)(O2)C(=O)C(=O)N2CCCC[C@H]2C(=O)O[C@H]([C@H](C)C[C@@H]2CC[C@@H](OCCOCc3cn(CCOCCOCCOCCOCCOCCOCCOCCOCCC(=O)NCCCCn4nc(-c5ccc6oc(N)nc6c5)c5c(N(C)C)ncnc54)nn3)[C@H](OC)C2)CC(=O)[C@H](C)/C=C(\C)[C@@H](O)[C@@H](OC)C(=O)[C@H](C)C[C@H](C)/C=C/C=C/C=C/1C` [Example 9], the IC50 was more than 1000 nM in the assay with P-Akt (S473) (MDA-MB-468, 4 h); less than 1 nM with P-P70S6K (T389); more than 1000 nM in the assay with P-4E-BP1 (T37/46) (MDA-MB-468, 4 h).
`CO[C@H]1C[C@@H]2CC[C@@H](C)[C@@](O)(O2)C(=O)C(=O)N2CCCC[C@H]2C(=O)O[C@H]([C@H](C)C[C@@H]2CC[C@H](n3cc(CCCC(=O)NCCOCCOCCOCCC(=O)NCCOCCOCCC(=O)NCCCCn4nc(-c5ccc6oc(N)nc6c5)c5c(N)ncnc54)nn3)[C@H](OC)C2)C[C@@H](OC)[C@H](C)/C=C(\C)[C@@H](O)[C@@H](OC)C(=O)[C@H](C)C[C@H](C)/C=C/C=C/C=C/1C` [Example 162]: the IC50 in the assay on P-Akt (S473) (MDA-MB-468, 4 h) is more than 1000 nM; in the assay on P-P70S6K (T389), 1 to 10 nM; in the assay on P-4E-BP1 (T37/46) (MDA-MB-468, 4 h) it was 31.6 to 1000 nM.
With `CO[C@H]1C[C@@H]2CC[C@@H](C)[C@@](O)(O2)C(=O)C(=O)N2CCCC[C@H]2C(=O)O[C@H]([C@H](C)C[C@@H]2CC[C@H](n3cc(COC(=O)NCCOCCOCCOCCC(=O)NCCOCCOCCOCCC(=O)NCCCCn4nc(-c5cc6cc(O)ccc6[nH]5)c5c(N)ncnc54)nn3)[C@H](OC)C2)C/C(=N/OCc2ccccc2)[C@H](C)/C=C(\C)[C@@H](O)[C@@H](OC)C(=O)[C@H](C)C[C@H](C)/C=C/C=C/C=C/1C` [Example 157], the IC50 is more than 1000 nM with P-Akt (S473) (MDA-MB-468, 4 h); more than 1000 nM in the assay on P-P70S6K (T389); more than 1000 nM with P-4E-BP1 (T37/46) (MDA-MB-468, 4 h).
As for `COC(=O)N[C@H]1C[C@@H]2CC[C@@H](C)[C@@](O)(O2)C(=O)C(=O)N2CCCC[C@H]2C(=O)O[C@H]([C@H](C)C[C@@H]2CC[C@@H](OCCCCc3cn(CCOCCOCCOCCOCCOCCOCCOCCOCCC(=O)NCCCCn4nc(-c5cnc6[nH]ccc6c5)c5c(N)ncnc54)nn3)[C@H](OC)C2)CC(=O)[C@H](C)/C=C(\C)[C@@H](O)[C@@H](OC)C(=O)[C@H](C)C[C@H](C)/C=C/C=C/C=C/1C` [Example 81], the IC50 with P-Akt (S473) (MDA-MB-468, 4 h) was 31.6 to 1000 nM; in the assay with P-P70S6K (T389) it was 1 to 10 nM; with P-4E-BP1 (T37/46) (MDA-MB-468, 4 h), 3.16 to 31.6 nM.
As for `CO[C@H]1C[C@@H]2CC[C@@H](C)[C@@](O)(O2)C(=O)C(=O)N2CCCC[C@H]2C(=O)O[C@H]([C@H](C)C[C@@H]2CC[C@@H](O)[C@H](OC)C2)C/C(=N/OCc2cn(CCOCCOCCOCCOCCOCCOCCOCCOCCC(=O)NCCCCn3nc(-c4ccc5oc(N)nc5c4)c4c(N)ncnc43)nn2)[C@H](C)/C=C(\C)[C@@H](O)[C@@H](OC)C(=O)[C@H](C)C[C@H](C)/C=C/C=C/C=C/1C` [Example 63], the IC50 in the assay on P-Akt (S473) (MDA-MB-468, 4 h) was 31.6 to 1000 nM; in the assay on P-P70S6K (T389), 10 to 1000 nM; in the assay on P-4E-BP1 (T37/46) (MDA-MB-468, 4 h), 31.6 to 1000 nM.
Consider `CO[C@H]1C[C@@H]2CC[C@@H](C)[C@@](O)(O2)C(=O)C(=O)N2CCCC[C@H]2C(=O)O[C@H]([C@H](C)C[C@@H]2CC[C@H](n3cc(COC(=O)NCCOCCOCCOCCC(=O)NCCOCCOCCC(=O)NCCCCn4nc(-c5cc6cc(O)ccc6[nH]5)c5c(N)ncnc54)nn3)[C@H](OC)C2)C/C(=N/OC(C)(C)C)[C@H](C)/C=C(\C)[C@@H](O)[C@@H](OC)C(=O)[C@H](C)C[C@H](C)/C=C/C=C/C=C/1C` [Example 159], for which the IC50 was more than 1000 nM in the assay with P-Akt (S473) (MDA-MB-468, 4 h); less than 1 nM in the assay on P-P70S6K (T389); more than 1000 nM with P-4E-BP1 (T37/46) (MDA-MB-468, 4 h).
As for `CO[C@H]1C[C@@H]2CC[C@@H](C)[C@@](O)(O2)C(=O)C(=O)N2CCCC[C@H]2C(=O)O[C@H]([C@H](C)C[C@@H]2CC[C@H](n3cc(COC(=O)NCCOCCOCCOCCC(=O)NCCOCCOCCOCCOCCC(=O)NCCCCn4nc(-c5ccc6oc(N)nc6c5)c5c(N)ncnc54)nn3)[C@H](OC)C2)CC(=O)[C@H](C)/C=C(\C)[C@@H](O)[C@@H](OC)C(=O)[C@H](C)C[C@H](C)/C=C/C=C/C=C/1C` [Example 124], the IC50 in the assay on P-Akt (S473) (MDA-MB-468, 4 h) was 3.16 to 31.6 nM; with P-P70S6K (T389), 1 to 10 nM; in the assay with P-4E-BP1 (T37/46) (MDA-MB-468, 4 h), 3.16 to 31.6 nM.
Regarding `CO[C@H]1C[C@@H]2CC[C@@H](C)[C@@](O)(O2)C(=O)C(=O)N2CCCC[C@H]2C(=O)O[C@H]([C@H](C)C[C@@H]2CC[C@H](n3cc(CCCC(=O)NCCOCCOCCOCCC(=O)NCCOCCOCCOCCC(=O)NCCCCn4nc(-c5cc6cc(O)ccc6[nH]5)c5c(N)ncnc54)nn3)[C@H](OC)C2)C/C(=N/OC(C)(C)C)[C@H](C)/C=C(\C)[C@@H](O)[C@@H](OC)C(=O)[C@H](C)C[C@H](C)/C=C/C=C/C=C/1C` [Example 178], the IC50 with P-Akt (S473) (MDA-MB-468, 4 h) is more than 1000 nM; in the assay with P-P70S6K (T389), 10 to 1000 nM; in the assay on P-4E-BP1 (T37/46) (MDA-MB-468, 4 h) it was more than 1000 nM.
For the compound `CO[C@H]1C[C@@H]2CC[C@@H](C)[C@@](O)(O2)C(=O)C(=O)N2CCCC[C@H]2C(=O)O[C@H]([C@H](C)C[C@@H]2CC[C@H](n3nncc3-c3cccc(-c4cnc(N5CCN(Cc6cn(CCOCCOCCOCCC(=O)NCCCCn7nc(-c8ccc9oc(N)nc9c8)c8c(N)ncnc87)nn6)C(CO)C5)nc4)c3)[C@H](OC)C2)CC(=O)[C@H](C)/C=C(\C)[C@@H](O)[C@@H](OC)C(=O)[C@H](C)C[C@H](C)/C=C/C=C/C=C/1C` (stereo partly drawn) [Example 34], the IC50 with P-Akt (S473) (MDA-MB-468, 4 h) is 31.6 to 1000 nM; with P-P70S6K (T389) it was 1 to 10 nM; in the assay on P-4E-BP1 (T37/46) (MDA-MB-468, 4 h) it was 3.16 to 31.6 nM.
As to `COc1cccc2cc(-c3nc([C@H]4CC[C@H](C(=O)NCCOCCOCCOCCOCCOCCOCCn5cc(CCCCO[C@@H]6CC[C@@H](C[C@@H](C)[C@@H]7CC(=O)[C@H](C)/C=C(\C)[C@@H](O)[C@@H](OC)C(=O)[C@H](C)C[C@H](C)/C=C/C=C/C=C(\C)[C@@H](OC)C[C@@H]8CC[C@@H](C)[C@@](O)(O8)C(=O)C(=O)N8CCCC[C@H]8C(=O)O7)C[C@H]6OC)nn5)CC4)n4ncnc(N)c34)[nH]c12` [Example 106], the IC50 is 3.16 to 31.6 nM with P-Akt (S473) (MDA-MB-468, 4 h); less than 1 nM in the assay with P-P70S6K (T389); less than 3.16 nM with P-4E-BP1 (T37/46) (MDA-MB-468, 4 h).
Regarding `CO[C@H]1C[C@@H]2CC[C@@H](C)[C@@](O)(O2)C(=O)C(=O)N2CCCC[C@H]2C(=O)O[C@H]([C@H](C)C[C@@H]2CC[C@H](n3cc(COC(=O)NCCOCCOCCOCCC(=O)NCCOCCOCCOCCC(=O)NCCCCn4nc(-c5cc6cc(O)ccc6[nH]5)c5c(N)ncnc54)nn3)[C@H](OC)C2)CC(=O)[C@H](C)/C=C(\C)[C@@H](O)[C@@H](OC)C(=O)[C@H](C)C[C@H](C)/C=C/C=C/C=C/1C` [Example 123], the IC50 in the assay on P-Akt (S473) (MDA-MB-468, 4 h) is 31.6 to 1000 nM; with P-P70S6K (T389), 1 to 10 nM; in the assay on P-4E-BP1 (T37/46) (MDA-MB-468, 4 h) it was 3.16 to 31.6 nM.
With `CO[C@H]1C[C@@H]2CC[C@@H](C)[C@@](O)(O2)C(=O)C(=O)N2CCCC[C@H]2C(=O)O[C@H]([C@H](C)C[C@@H]2CC[C@H](n3nncc3-c3cccc(-c4cnc(N5CCN(Cc6cn(CCOCCOCCOCCOCCC(=O)NCCCCn7nc(-c8ccc9oc(N)nc9c8)c8c(N)ncnc87)nn6)C(CO)C5)nc4)c3)[C@H](OC)C2)CC(=O)[C@H](C)/C=C(\C)[C@@H](O)[C@@H](OC)C(=O)[C@H](C)C[C@H](C)/C=C/C=C/C=C/1C` (stereo partly drawn) [Example 33], the IC50 is 3.16 to 31.6 nM with P-Akt (S473) (MDA-MB-468, 4 h); 1 to 10 nM in the assay on P-P70S6K (T389); 3.16 to 31.6 nM in the assay on P-4E-BP1 (T37/46) (MDA-MB-468, 4 h).
For the compound `CO[C@H]1C[C@@H]2CC[C@@H](C)[C@@](O)(O2)C(=O)C(=O)N2CCCC[C@H]2C(=O)O[C@H]([C@H](C)C[C@@H]2CC[C@H](n3cc(COC(=O)NCCOCCOCCOCCC(=O)NCCOCCOCCOCCC(=O)NCCCCn4nc(-c5ccc6oc(N)nc6c5)c5c(N)ncnc54)nn3)[C@H](OC)C2)C[C@@H](OC)[C@H](C)/C=C(\C)[C@@H](O)[C@@H](OC)C(=O)[C@H](C)C[C@H](C)/C=C/C=C/C=C/1C` [Example 145], the IC50 was more than 1000 nM with P-Akt (S473) (MDA-MB-468, 4 h); 1 to 10 nM with P-P70S6K (T389); 31.6 to 1000 nM with P-4E-BP1 (T37/46) (MDA-MB-468, 4 h).
`CO[C@H]1C[C@@H]2CC[C@@H](C)[C@@](O)(O2)C(=O)C(=O)N2CCCC[C@H]2C(=O)O[C@H]([C@H](C)C[C@@H]2CC[C@@H](OCCCCc3cn(CCOCCOCCOCCOCCOCCOCCC(=O)NCCCCn4nc(-c5ccc6oc(N)nc6c5)c5c(N)ncnc54)nn3)[C@H](OC)C2)CC(=O)[C@H](C)/C=C(\C)[C@@H](O)[C@@H](OC)C(=O)[C@H](C)C[C@H](C)/C=C/C=C/C=C/1C` [Example 3]: the IC50 is 3.16 to 31.6 nM in the assay on P-Akt (S473) (4 h), less than 1 nM with P-P70S6K (T389) and less than 3.16 nM in the assay on P-4E-BP1 (T37/46) (4 h).
